Values after ≈ are worked out from the molar mass of the structure shown.

Here are results for two compounds from ChEMBL document CHEMBL3763140, “Discovery of 5-aryl-1,3-dihydro-2H-imidazo[4,5-b]pyridin-2-ones as positive allosteric modulators of metabotropic glutamate subtype-2 (mGlu2) receptors with efficacy in a preclinical model of psychosis” (Bioorg Med Chem Lett, 2016).

The nature of data set [1]: physchem. The following applies: buffer, pH 7.
Data set [2] in a line: Total plasma concentration in MK801 stimulated Sprague-Dawley rat hyperlocomotion model at 10 mg/kg, po after 2 hrs. Type of data set: ADME, organism-based.
Data set [3] can be described thus: Total plasma concentration in PCP stimulated Sprague-Dawley rat hyperlocomotion model at 100 mg/kg, po after 2 hrs. Type of data set: ADME, organism-based.
Data set [4] concerns Plasma. Kind of data set: Unbound plasma concentration in PCP stimulated Sprague-Dawley rat hyperlocomotion model at 100 mg/kg, po after 2 hrs. Type of data set: ADME, organism-based. The following applies: in vivo.
Data set [5] relates to Rattus norvegicus. Kind of data set: Intrinsic clearance in iv dosed Wistar Hannover rat administered as single dose measured up to 24 hrs. Format: ADME, organism-based. The following applies: in vivo.
Data set [6] has as its system Plasma. Kind of data set: Unbound plasma concentration in MK801 stimulated Sprague-Dawley rat hyperlocomotion model at 30 mg/kg, po after 2 hrs. Format: ADME, organism-based. To be noted: in vivo.
Data set [7] can be described thus: Oral bioavailability in Wistar Hannover rat at 10 mg/kg administered as single dose measured up to 24 hrs. Type of data set: ADME, organism-based. To be noted: in vivo.
Data set [8] is described as follows: Total clearance in iv dosed Wistar Hannover rat administered as single dose measured up to 24 hrs. The following applies: in vivo. Type of data set: ADME, organism-based.
The test system of data set [9] is Cerebrospinal fluid. Nature of the data set: Drug uptake in cerebro spinal fluid of PCP stimulated Sprague-Dawley rat hyperlocomotion model at 10 mg/kg, po. The following applies: in vivo, read-out: Drug uptake. Format: ADME, organism-based.
The test system of data set [10] is Plasma. Nature of the data set: Unbound plasma concentration in PCP stimulated Sprague-Dawley rat hyperlocomotion model at 30 mg/kg, po after 2 hrs. To be noted: in vivo. Type of data set: ADME, organism-based.
Data set [11] concerns Cerebrospinal fluid. Kind of data set: Drug uptake in cerebro spinal fluid of MK801 stimulated Sprague-Dawley rat hyperlocomotion model at 10 mg/kg, po. Type of data set: ADME, organism-based. The following applies: in vivo, read-out: Drug uptake.
Data set [12] in a line: Total plasma concentration in PCP stimulated Sprague-Dawley rat hyperlocomotion model at 30 mg/kg, po after 2 hrs. Type of data set: ADME, organism-based.
The subject of data set [13] is Plasma. Kind of data set: Unbound plasma concentration in MK801 stimulated Sprague-Dawley rat hyperlocomotion model at 10 mg/kg, po after 2 hrs. Type of data set: ADME, organism-based. To be noted: in vivo.
The nature of data set [14]: Total plasma concentration in PCP stimulated Sprague-Dawley rat hyperlocomotion model at 10 mg/kg, po after 2 hrs. Type of data set: ADME, organism-based.
In data set [15] the test system is Cerebrospinal fluid. Nature of the data set: Drug uptake in cerebro spinal fluid of MK801 stimulated Sprague-Dawley rat hyperlocomotion model at 30 mg/kg, po. Format: ADME, organism-based. The following applies: in vivo, read-out: Drug uptake.
Data set [16] can be described thus: in vivo. To be noted: Wistar Hannover, rat, 10 mg/kg.
Data set [17] concerns Plasma. Kind of data set: Unbound plasma concentration in PCP stimulated Sprague-Dawley rat hyperlocomotion model at 10 mg/kg, po after 2 hrs. Format: ADME, organism-based. To be noted: in vivo.
A short description of data set [18]: Half life in iv dosed Wistar Hannover rat administered as single dose measured up to 24 hrs. To be noted: in vivo. Format: ADME, organism-based.
Data set [19] can be described thus: Total plasma concentration in MK801 stimulated Sprague-Dawley rat hyperlocomotion model at 100 mg/kg, po after 2 hrs. Type of data set: ADME, organism-based.
For data set [20], the system named is Cerebrospinal fluid. Kind of data set: Drug uptake in cerebro spinal fluid of MK801 stimulated Sprague-Dawley rat hyperlocomotion model at 100 mg/kg, po. Type of data set: ADME, organism-based. To be noted: in vivo, read-out: Drug uptake.
Data set [21] relates to MDR1a (P-glycoprotein). Kind of data set: Apparent permeability across pig LLC-PK cells expressing human/rat MDR1a. Format: ADME, cell-based, Sus scrofa. To be noted: LLC-PK1.
The test system of data set [22] is Cerebrospinal fluid. Kind of data set: Drug uptake in cerebro spinal fluid of PCP stimulated Sprague-Dawley rat hyperlocomotion model at 100 mg/kg, po. Type of data set: ADME, organism-based. The following applies: in vivo, read-out: Drug uptake.
Data set [23] in a line: Total plasma concentration in MK801 stimulated Sprague-Dawley rat hyperlocomotion model at 30 mg/kg, po after 2 hrs. Format: ADME, organism-based.
Data set [24] has as its system Plasma. Kind of data set: Unbound plasma concentration in MK801 stimulated Sprague-Dawley rat hyperlocomotion model at 100 mg/kg, po after 2 hrs. Type of data set: ADME, organism-based. The following applies: in vivo.
In data set [25] the test system is Cerebrospinal fluid. Kind of data set: Drug uptake in cerebro spinal fluid of PCP stimulated Sprague-Dawley rat hyperlocomotion model at 30 mg/kg, po. Format: ADME, organism-based. The following applies: in vivo, read-out: Drug uptake.

Consider `Cn1c(=O)n(CC(C)(C)C)c2ccc(-c3ccc(S(C)(=O)=O)cc3)nc21`, for which the solubility in [1] turned out to be 7 µM (≈ 2.61 µg/mL).
Regarding `Cc1ccc(C(C)(C)O)cc1-c1ccc2c(n1)n(C)c(=O)n2CC(C)(C)C`, the concentration at 2 h in data set [2] was found to be 1400 nM; in data set [3] it was 25000 nM; in data set [12], 8500 nM; in data set [14] it was 1800 nM; in data set [19], 22000 nM; in [23] it was 6700 nM. For the same compound, the “Cp(f)” value in data set [4] was 750000 nM; in data set [6], 201000 nM; in data set [10], 255000 nM; in data set [13], 42000 nM; in data set [17], 54000 nM; in data set [24], 660000 nM. The compound further registered a CL in [5] of 2800 mL/min/kg. The compound further returned a bioavailability in data set [7] of 47%. Moreover, the clearance in [8] was found to be 42 mL/min/kg. In addition, the concentration in data set [9] turned out to be 26 nM; in data set [11], 21 nM; in data set [15], 211 nM; in data set [20], 711 nM; in data set [22], 906 nM; in data set [25], 399 nM. In addition, the Cmax at 24 h in [16] was 1500 nM. Also, in data set [18], the half-life was 58.8 min. Also, the Papp in [21] came out at 31 ×10⁻⁶ cm/s. Besides, in [1], the concentration in solution (solubility) came to 147 µM (≈ 54 µg/mL).

The term solubility denotes the concentration that dissolves in the medium under given conditions. Low values mean little dissolved substance, high ones much dissolved substance. The bioavailability is the share of a dose that reaches the circulation, judged against a reference dose that is usually intravenous. Read a low bioavailability as poor availability. The clearance is the rate of elimination divided by the concentration. Low values mean inefficient removal, high ones efficient removal. The term Cmax denotes the highest concentration seen after dosing. By half-life is commonly meant the time needed for the level to fall by half in the phase considered. Low readings indicate fast loss, high ones slow loss. In general, Papp refers to the rate of passage across a membrane or cell layer, normalised by area and donor concentration.
